Data reported in the supplement of paper PMC10307832.

Assays:
Test in all cases: relative viability (nuclei count vs DMSO), 5 days (fraction); higher = more cells survive
[1] = compound: CN(C)C/C=C/C(=O)Nc1cc2c(Nc3ccc(F)c(Cl)c3)ncnc2cc1O[C@H]1CCOC1 [Afatinib] + CC(C)C[C@H](NC(=O)[C@H](Cc1ccccc1)NC(=O)c1cnccn1)B(O)O [Bortezomib] (partner 0.002 µM)
Method in brief: (§1)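 Lung cancer cell lines, seeded in 1536-well plates, were treated the following day by pin tool with a single drug or with five library-drug doses (not always all listed) in √10 steps on top of a fixed anchor-drug dose. Cells were fixed and nuclei stained in one step after 5 days, and nuclei were counted. Relative viability is the nuclei count for treated wells divided by that for vehicle wells, reported as medians of duplicate plates.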

[2] = compound: CN(C)C/C=C/C(=O)Nc1cc2c(Nc3ccc(F)c(Cl)c3)ncnc2cc1O[C@H]1CCOC1 [Afatinib] + Cc1nc(NC(=O)N2CCC[C@H]2C(N)=O)sc1-c1ccnc(C(C)(C)C(F)(F)F)c1 [Alpelisib] (partner 2 µM)
Method in brief: as §1

[3] = compound: CN(C)C/C=C/C(=O)Nc1cc2c(Nc3ccc(F)c(Cl)c3)ncnc2cc1O[C@H]1CCOC1 [Afatinib] + Nc1nc2[nH]cc(CCc3ccc(C(=O)N[C@@H](CCC(=O)O)C(=O)O)cc3)c2c(=O)[nH]1 [Pemetrexed] (partner 0.2 µM)
Method in brief: as §1

[4] = compound: CN(C)C/C=C/C(=O)Nc1cc2c(Nc3ccc(F)c(Cl)c3)ncnc2cc1O[C@H]1CCOC1 [Afatinib] + O=C(c1cc(Cc2n[nH]c(=O)c3ccccc23)ccc1F)N1CCN(C(=O)C2CC2)CC1 [Olaparib] (partner 8 µM)
Method in brief: as §1

| Cell Line | relative viability ([1]; first compound 0.005 µM) | relative viability ([1]; first compound 0.01581 µM) | relative viability ([1]; first compound 0.05 µM) | relative viability ([1]; first compound 0.1581 µM) | relative viability ([1]; first compound 0.5 µM) | relative viability ([2]; first compound 0.005 µM) | relative viability ([2]; first compound 0.01581 µM) | relative viability ([2]; first compound 0.05 µM) | relative viability ([2]; first compound 0.1581 µM) | relative viability ([2]; first compound 0.5 µM) | relative viability ([3]; first compound 0.005 µM) | relative viability ([3]; first compound 0.01581 µM) | relative viability ([3]; first compound 0.05 µM) | relative viability ([3]; first compound 0.1581 µM) | relative viability ([3]; first compound 0.5 µM) | relative viability ([4]; first compound 0.005 µM) | relative viability ([4]; first compound 0.01581 µM) | relative viability ([4]; first compound 0.05 µM) | relative viability ([4]; first compound 0.1581 µM) | relative viability ([4]; first compound 0.5 µM) |
| --- | --- | --- | --- | --- | --- | --- | --- | --- | --- | --- | --- | --- | --- | --- | --- | --- | --- | --- | --- | --- |
| NCI-H661 | 0.877 | 0.751 | 0.662 | 0.444 | 0.415 | 0.666 | 0.389 | 0.475 | 0.398 | 0.349 | 0.956 | 0.861 | 0.809 | 0.616 | 0.688 | 0.811 | 0.732 | 0.638 | 0.589 | 0.637 |
| NCI-H838 | 0.869 | 0.958 | 1.01 | 0.667 | 1.05 | 0.93 | 1.1 | 1.06 | 0.905 | 1.1 | 0.246 | 0.243 | 0.259 | 0.243 | 0.259 | 0.803 | 0.723 | 0.819 | 0.757 | 0.815 |
| NCI-H1355 | 1.26 | 1.16 | 1.29 | 1.03 | 1.02 | 0.782 | 0.89 | 0.918 | 0.656 | 0.645 | 1.07 | 1.01 | 0.946 | 0.906 | 0.974 | 0.723 | 0.768 | 0.713 | 0.716 | 0.67 |
| NCI-H1437 | 0.941 | 0.52 | 0.446 | 0.496 | 0.554 | 0.99 | 1.06 | 1.04 | 0.924 | 1.01 | 0.32 | 0.298 | 0.339 | 0.324 | 0.283 | 0.657 | 0.64 | 0.642 | 0.596 | 0.569 |
| NCI-H1651 | 1.08 | 0.912 | 0.926 | 1.02 | 0.884 | 1.02 | 0.881 | 0.906 | 0.953 | 0.849 | 0.553 | 0.539 | 0.57 | 0.569 | 0.54 | 0.173 | 0.186 | 0.179 | 0.17 | 0.21 |
| NCI-H1666 | 0.712 | 0.758 | 0.567 |  | 0.8 | 0.968 | 0.605 | 0.505 |  | 0.497 | 0.85 | 0.768 | 0.843 | 0.704 | 0.69 | 0.78 | 0.792 | 0.75 | 0.712 | 0.681 |
| NCI-H1734 | 1.08 | 0.816 | 0.895 | 0.921 | 0.922 | 0.675 | 0.747 | 0.735 | 0.697 | 0.671 | 0.411 | 0.374 | 0.406 | 0.375 | 0.453 | 0.666 | 0.569 | 0.621 | 0.58 | 0.551 |
| NCI-H1755 | 0.995 | 0.925 | 0.927 | 0.934 | 1.03 | 0.492 | 0.89 | 0.882 | 0.888 | 0.929 | 0.405 | 0.611 | 0.463 | 0.402 | 0.421 | 0.906 | 0.857 | 0.921 | 0.864 | 0.813 |
| NCI-H1792 | 0.841 | 0.759 | 0.975 | 0.906 | 0.938 | 0.64 | 0.732 | 0.722 | 0.674 | 0.668 | 0.781 | 0.647 | 0.751 | 0.824 | 0.522 | 0.437 | 0.531 | 0.506 | 0.526 | 0.489 |
| NCI-H1915 | 0.994 | 1 | 0.938 | 1 | 0.952 | 1.09 | 1.09 | 1.06 | 1.02 | 0.972 | 0.532 | 0.491 | 0.468 | 0.52 | 0.427 | 0.255 |  | 0.244 | 0.27 | 0.259 |
| NCI-H1975 | 0.358 | 0.345 | 0.309 | 0.171 | 0.189 | 0.628 | 0.511 | 0.43 | 0.197 | 0.206 | 0.287 | 0.28 | 0.295 | 0.276 | 0.209 | 0.917 | 0.771 | 0.778 | 0.59 | 0.321 |
| NCI-H1993 | 0.891 | 0.633 | 0.678 | 0.692 | 0.706 | 0.608 | 0.771 | 0.721 | 0.765 | 0.705 | 0.569 | 0.526 | 0.638 | 0.551 | 0.506 | 0.828 | 0.883 | 0.641 | 0.557 | 0.704 |
| NCI-H2009 | 1.09 | 1.01 | 0.991 | 1 | 1.03 | 1.23 | 1.15 | 1.22 | 1.17 | 1.14 | 1.04 | 1.01 | 0.977 | 1.03 | 1.01 | 0.578 | 0.699 | 0.743 | 0.648 | 0.665 |
| NCI-H2023 | 0.954 | 0.884 | 0.984 | 0.899 | 1.14 | 0.608 | 0.544 | 0.446 | 0.408 | 0.434 | 0.222 | 0.209 | 0.231 | 0.189 | 0.208 | 0.514 | 0.444 | 0.489 | 0.464 | 0.481 |
| NCI-H2085 | 1.01 | 0.902 | 0.932 | 0.894 | 0.975 | 0.944 | 0.873 | 0.812 | 0.659 | 0.803 | 0.821 | 0.671 | 0.842 | 0.681 | 0.699 | 0.751 | 0.691 | 0.659 | 0.603 | 0.648 |
| NCI-H2087 | 1.02 | 0.756 | 0.867 | 0.8 | 0.795 | 1.23 | 1.18 | 1 | 1.28 | 1.02 | 0.763 | 0.668 | 0.664 | 0.671 | 0.652 | 0.511 | 0.669 | 0.609 | 0.525 | 0.593 |
